For two compounds, Activity results are on record in ChEMBL document CHEMBL1137384, “Benzopyrans are selective estrogen receptor beta agonists with novel activity in models of benign prostatic hyperplasia” (J Med Chem, 2006).

Assay type in all cases: functional, organism-based
In assay [1] the test system is Mus musculus. Description: Ventral prostate involution in CD1 mouse at 30 mg/kg, po after 7 days. Details: dose 30 mg/kg. The following applies: Prostate gland.
For assay [2], the system named is Mus musculus. The experiment in a line: Effect on seminal vesicle weight in po dosed CD1 mouse after 7 days.
Assay [3] has as its system Mus musculus. The experiment in a line: Effect on dihydro testosterone level in CD1 mouse plasma at 0.1 mg/kg, po after 7 days. On the set-up: dose 0.1 mg/kg.
Assay [4] has as its system Mus musculus. Description: Effect on testes weight in po dosed CD1 mouse after 7 days. The conditions noted are these: Testis.
The subject of assay [5] is Mus musculus. The experiment in a line: Effect on ventral prostate weight in po dosed CD1 mouse after 7 days. The conditions noted are these: Prostate gland.
The test system of assay [6] is Mus musculus. The experiment in a line: Effect on testosterone level in CD1 mouse plasma at 0.1 mg/kg, po after 7 days. On the set-up: dose 0.1 mg/kg.

Active and inactive are the calls of the source. No cut-off for these calls is given here.

With `CC(C)(C)NC(=O)[C@H]1CC[C@H]2[C@@H]3CC[C@H]4NC(=O)C=C[C@]4(C)[C@H]3CC[C@]12C`, the result in assay [1] was Active.
On to `Oc1ccc([C@@H]2Oc3ccc(O)cc3[C@@H]3CCC[C@@H]32)cc1`, for which, in assay [1], the result was Active. In addition, the result in assay [2], in assay [3], in assay [4] and in assay [6] was inactive. Besides, the Activity result in assay [5] was “Dose-dependent effect”.
